From ChEMBL document CHEMBL1157572 (J Med Chem, 2010)

Experiments:
[1] = Displacement of [3H]colchicine from tubulin by at 1 uM scintillation proximity assay
[2] = tested on: MKN-45; assay: Antiproliferative activity against human MKN45 cells after 72 hrs by methylene blue dye assay; assay type: functional, cell-based; details: MKN-45, 72 h
[3] = Antiproliferative activity against P-gp170/MDR expressing human KBVIN cells after 72 hrs by methylene blue dye assay; assay type: functional, cell-based
[4] = tested on: HT-29; assay: Antiproliferative activity against human HT-29 cells after 72 hrs by methylene blue dye assay; assay type: functional, cell-based; details: HT-29, 72 h
[5] = Displacement of [3H]colchicine from tubulin by at 5 uM scintillation proximity assay
[6] = tested on: NCI-H460; assay: Antiproliferative activity against human H460 cells after 72 hrs by methylene blue dye assay; assay type: functional, cell-based; details: NCI-H460, 72 h
[7] = tested on: KB; assay: Antiproliferative activity against human KB cells after 72 hrs by methylene blue dye assay; assay type: functional, cell-based
[8] = Inhibition of tubulin polymerization by turbidimetric assay

IC50 [2] [µM]	IC50 [4] [µM]	IC50 [6] [µM]	IC50 [7] [µM]	SMILES	Activity [1] [%]	IC50 [3] [µM]	Activity [5] [%]	IC50 [8] [µM]
> 10	> 10	> 10	> 10	COc1cc(C(=O)c2ccc3c(ccc[n+]3C)c2)cc(OC)c1OC	–	> 10	–	–
1.2	2.8	3.8	2.9	COc1cc(C(=O)c2cccc3ncccc23)cc(OC)c1OC	–	2.3	–	–
0.0163	0.0246	0.036	0.024	COc1cc(C(=O)c2ccc3ncccc3c2)cc(OC)c1OC	51	0.0215	72	2.9
0.245	0.148	0.18	0.174	COc1cc(C(=O)c2ccc3ccccc3n2)cc(OC)c1OC	–	0.117	–	> 10
0.617	0.872	1.1	0.83	COc1cc(C(=O)c2ccc3c(ccc[n+]3[O-])c2)cc(OC)c1OC	–	0.764	–	–
> 10	> 10	> 10	> 10	COc1cc(C(=O)c2ccc3cccnc3c2)cc(OC)c1OC	–	> 10	–	–
3.2	4.5	5	8.1	COc1cc(C(=O)c2cccc3cccnc23)cc(OC)c1OC	–	6	–	–
0.147	0.163	0.193	0.155	COc1cc(C(=O)c2ccnc3c(OC)cccc23)cc(OC)c1OC	–	0.165	–	–
0.562	1	1.6	1.8	COc1cc(C(=O)c2cnc3ccccc3c2)cc(OC)c1OC	–	1.1	–	–
0.139	0.206	0.257	0.301	COc1ccc2cc(C(=O)c3cc(OC)c(OC)c(OC)c3)ccc2n1	–	0.202	–	> 10

SMILES	IC50 [2] [µM]	IC50 [4] [µM]	IC50 [6] [µM]	IC50 [7] [µM]	Activity [1] [%]	IC50 [3] [µM]	Activity [5] [%]	IC50 [8] [µM]
COc1cc(C(=O)c2ccc3c(N)c(OC)ccc3n2)cc(OC)c1OC	0.0003	0.0004	0.0004	0.0003	90	0.0002	97	1.6
COc1cc(C(=O)c2ccnc3ccccc23)cc(OC)c1OC	0.92	2.3	3.8	3.5	–	2.2	–	–
COc1ccc(/C=C\c2cc(OC)c(OC)c(OC)c2)cc1O [COMBRETASTATIN A4]	0.0049	0.835	0.0026	0.0024	87	0.0019	95	2.1
COc1ccc2nc(C(=O)c3cc(OC)c(OC)c(OC)c3)ccc2c1	0.15	0.077	0.0615	0.0272	40	0.0215	68	3.5
